Molecules are shown by their SMILES.

These results are taken from patent US8501981B2, “CXCR2 inhibitors” (SANOFI, priority 2006, dated 2013).

Chain of human CXCR2 (P25025 whole entry): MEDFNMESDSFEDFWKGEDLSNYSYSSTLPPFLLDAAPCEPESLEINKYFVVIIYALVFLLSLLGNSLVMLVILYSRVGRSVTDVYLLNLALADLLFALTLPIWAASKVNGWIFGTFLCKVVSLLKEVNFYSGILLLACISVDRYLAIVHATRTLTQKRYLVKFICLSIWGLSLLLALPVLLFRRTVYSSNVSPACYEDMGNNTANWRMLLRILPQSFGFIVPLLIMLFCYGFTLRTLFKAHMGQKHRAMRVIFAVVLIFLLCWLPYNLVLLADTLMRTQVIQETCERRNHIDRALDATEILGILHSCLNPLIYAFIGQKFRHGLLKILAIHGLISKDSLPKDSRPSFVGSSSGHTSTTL

For this experiment, the target named is human CXCR2 (Homo sapiens (Human), UniProt P25025). The experiment is described as follows: Determination of CXCR2 inhibition: Calcium Fluorescence Assay (FLIPR). In kind it is cell-based. To be noted: chemokine IL-8; CHO-K1 cells stably transfected with human CXCR2 and Gα16. From the text:
Determination of CXCR2 inhibition: Calcium Fluorescence Assay (FLIPR)
The assay is based on the detection of intracellular calcium changes detected by the selective, calcium-chelating dye, Fluo-4 (Molecular Probes). A large fluorescence intensity increase is observed upon calcium association with Fluo-4. […] By co-expressing the CXCR2 receptor and the promiscuous Gα16 protein, activation of this chemokine receptor is directed into this phospholipase C cascade resulting in intracellular calcium mobilization.
The CHO—K1 cells stably transfected with human CXCR2 and the promiscuous Gα16 protein were maintained in a log phase of growth at 37° C. and 5% CO2 in the following media: Iscove's, 10% FBS, 1× Penicillin-Streptomycin, 400 μg/mL g418 and 350 μg/mL Zeocin. Approximately 24-48 hours prior to the assay, 20,000-30,000 cells/well were plated onto a 96-well black/clear bottomed assay plate (Becton Dickinson) with a well volume of 180 μl. For dye-loading the culture medium was carefully removed and replaced by 100 μl/well dye solution (4 μM Fluo-4 in 135 mM NaCl, 5 mM KCl, 1 mM magnesium sulphate, 5 mM glucose, 20 mM hepes, 2.5 mM probenecid; pH 7.4). Cells were incubated for 1 h at 37° C., and then washed 3× with buffer. After washing 90 μl buffer/well were left. Increasing concentrations of compound was added in 45 μl buffer (4× concentrated) followed by 10 min incubation at 37° C. Then the chemokine (10-100 nM) was applied in 45 μl buffer (4× concentrated) and the measurement performed for 2 min. The IC50 value of a compound was determined by calculation of % inhibition of total calcium response to the chemokine.
`CC(C)(NC(=O)c1cc(F)c2ccccc2c1OCCc1ccccc1)C(=O)O` [Example 17, 2-[(4-Fluoro-1-phenethyloxy-naphthalene-2-carbonyl)-amino]-2-methyl-propionic acid]: the IC50 is less than 10 µM.
As for `CC(C)(NC(=O)c1cc(F)c2ccccc2c1OCCCc1ccccc1)C(=O)O` [Example 18, 2-{[4-Fluoro-1-(3-phenyl-propoxy)-naphthalene-2-carbonyl]-amino}-2-methyl-propionic acid], the IC50 is less than 10 µM.
Take `CC(C)(NC(=O)c1cc(F)c2ccccc2c1OCCOc1ccccc1)C(=O)O` [Example 20, 2-{[4-Fluoro-1-(2-phenoxy-ethoxy)-naphthalene-2-carbonyl]-amino}-2-methyl-propionic acid]: the IC50 was less than 10 µM.
`CC(C)(NC(=O)c1sc2ccccc2c1OCCOc1ccccc1)C(=O)O` [Example 46, 2-Methyl-2-{[3-(2-phenoxy-ethoxy)-benzo[b]thiophene-2-carbonyl]-amino}-propionic acid]: the 50% inhibitory concentration (IC50) stood at 1.76 µM.
Take `CC(CCc1ccccc1)Oc1c(C(=O)NC2(C(=O)O)CCCC2)ccc2ccccc12` (centres unmarked) [Example 52, 1-{[1-(1-Methyl-3-phenyl-propoxy)-naphthalene-2-carbonyl]-amino}-cyclopentanecarboxylic acid]: the IC50 worked out at 0.92 µM.
Take `CC(C)CC(C)(NC(=O)c1ccc2ccccc2c1OCCOc1ccccc1)C(=O)O` (centres unmarked) [Example 55, 2,4-Dimethyl-2-{[1-(2-phenoxy-ethoxy)-naphthalene-2-carbonyl]-amino}-pentanoic acid]: the IC50 came out at 2.56 µM.
`CC(C)(NC(=O)c1ccc2ccccc2c1OCCOc1ccc(F)c(Cl)c1)C(=O)O` [Example 73, 2-({1-[2-(3-Chloro-4-fluoro-phenoxy)-ethoxy]-naphthalene-2-carbonyl}-amino)-2-methyl-propionic acid]: the IC50 was found to be 1.25 µM.
With `O=C(NC1(C(=O)O)CCC1)c1ccc2ccccc2c1OCCC1CCCCC1` [Example 97, 1-{[1-(2-Cyclohexyl-ethoxy)-naphthalene-2-carbonyl]-amino}-cyclobutanecarboxylic acid], the IC50 is less than 10 µM.
Consider `O=C(NC1(C(=O)O)CCC1)c1ccc2ccccc2c1OCCCc1ccccc1` [Example 99, 1-{[1-(3-Phenyl-propoxy)-naphthalene-2-carbonyl]-amino}-cyclobutanecarboxylic acid], for which the IC50 is less than 10 µM.
The result for `O=C(NC1(C(=O)O)CCC1)c1ccc2ccccc2c1OCCOc1ccccc1` [Example 100] reads less than 10 µM; that for `O=C(NC1(C(=O)O)CCC1)c1ccc2ccccc2c1OCCOc1ccc(F)cc1` [Example 105, 1-({1-[2-(4-Fluoro-phenoxy)-ethoxy]-naphthalene-2-carbonyl}-amino)-cyclobutanecarboxylic acid], 3.23 µM.
As to `CC(C)(NC(=O)c1ccc2ccccc2c1OCCCc1ccc(Cl)cc1)C(=O)O` [Example 106, 2-({1-[3-(4-Chloro-phenyl)-propoxy]-naphthalene-2-carbonyl}-amino)-2-methyl-propionic acid], the IC50 was less than 10 µM.
In the case of `CCCCC(CC)(NC(=O)c1ccc2ccccc2c1OCCCc1ccccc1)C(=O)O` (centres unmarked) [Example 116, 2-Ethyl-2-{[1-(3-phenyl-propoxy)-naphthalene-2-carbonyl]-amino}-hexanoic acid], the IC50 is less than 10 µM.
As for `CCCCC(CC)(NC(=O)c1ccc2ccccc2c1OCCOc1ccccc1)C(=O)O` (centres unmarked) [Example 117, 2-Ethyl-2-{[1-(2-phenoxy-ethoxy)-naphthalene-2-carbonyl]-amino}-hexanoic acid], the figure is less than 10 µM.
For `CCCCC(CC)(NC(=O)c1ccc2ccccc2c1OCCCC1CCCCC1)C(=O)O` (centres unmarked) [Example 119, 2-{[1-(3-Cyclohexyl-propoxy)-naphthalene-2-carbonyl]-amino}-2-ethyl-hexanoic acid], the IC50 was less than 10 µM.
On to `CC(C)(NC(=O)c1ccc2ccccc2c1OCCc1ccccc1)C(=O)O` [Example 126, 2-Methyl-2-[(1-phenethyloxy-naphthalene-2-carbonyl)-amino]-propionic acid], for which the IC50 is less than 10 µM.
With `C[C@@H](NC(=O)c1ccc2ccccc2c1OCCc1ccc(F)cc1)C(=O)O` [Example 130, (R)-2-({1-[2-(4-Fluoro-phenyl)-ethoxy]-naphthalene-2-carbonyl}-amino)-propionic acid], the IC50 was less than 10 µM.
Turning to `CC(CCc1ccccc1)Oc1c(C(=O)NC(C)(C)C(=O)O)ccc2ccccc12` (centres unmarked) [Example 140, 2-Methyl-2-{[1-(1-methyl-3-phenyl-propoxy)-naphthalene-2-carbonyl]-amino}-propionic acid], the IC50 was less than 10 µM.
In the case of `CC(C)(NC(=O)c1ccc2ccccc2c1C#CCOc1ccccc1)C(=O)O` [Example 165, 2-Methyl-2-{[1-(3-phenoxy-prop-1-ynyl)-naphthalene-2-carbonyl]-amino}-propionic acid], the concentration for half-maximal inhibition (IC50) was less than 10 µM.
In the case of `CC(C)(NC(=O)c1ccc2ccccc2c1C#CCCCc1ccccc1)C(=O)O` [Example 166, 2-Methyl-2-{[1-(5-phenyl-pent-1-ynyl)-naphthalene-2-carbonyl]-amino}-propionic acid], the IC50 amounted to 1.67 µM.

By IC50 is commonly meant the concentration at which inhibition is half-maximal.
